PubChem BioAssay AID2060490 (Molecular Pharmacology Branch, DTP, NCI, 2025)
Blank lines part the entries; values can stand above or below the compound they belong to.

Tested on: 885512-296-R-J2-PDC complex spheroid viability
Test: Anticancer human tumor 885512-296-R-J2-PDC patient-derived breast carcinoma cell line growth inhibition [GQUAD]
Settings: for IC50: curve of first compound; for viability, T/C: stronger effect = lower value
Outline: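 Multi-cell-type spheroids of tumor cells with HUVEC and mesenchymal stem cells, treated with drug combinations. Concentrations descend in half-log steps from near clinical Cmax, or from 10 microM where Cmax is unknown; viability read-out.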

[1] = second compound 0.0316 µM, first compound 0.0316 µM
[2] = second compound 0.0316 µM, first compound 0.1 µM
[3] = second compound 0.0316 µM, first compound 0.316 µM
[4] = second compound 0.0316 µM, first compound 1 µM
[5] = second compound 0.0316 µM, first compound 3.16 µM
[6] = second compound 0.0316 µM, first compound 10 µM
[7] = second compound 0.1 µM, first compound 0.0316 µM
[8] = second compound 0.1 µM, first compound 0.1 µM
[9] = second compound 0.1 µM, first compound 0.316 µM
[10] = second compound 0.1 µM, first compound 1 µM
[11] = second compound 0.1 µM, first compound 3.16 µM
[12] = second compound 0.1 µM, first compound 10 µM
[13] = second compound 0.316 µM, first compound 0.0316 µM
[14] = second compound 0.316 µM, first compound 0.1 µM
[15] = second compound 0.316 µM, first compound 0.316 µM
[16] = second compound 0.316 µM, first compound 1 µM
[17] = second compound 0.316 µM, first compound 3.16 µM
[18] = second compound 0.316 µM, first compound 10 µM
[19] = second compound 1 µM, first compound 0.0316 µM
[20] = second compound 1 µM, first compound 0.1 µM
[21] = second compound 1 µM, first compound 0.316 µM
[22] = second compound 1 µM, first compound 1 µM
[23] = second compound 1 µM, first compound 3.16 µM
[24] = second compound 1 µM, first compound 10 µM
[25] = second compound 3.16 µM, first compound 0.0316 µM
[26] = second compound 3.16 µM, first compound 0.1 µM
[27] = second compound 3.16 µM, first compound 0.316 µM
[28] = second compound 3.16 µM, first compound 1 µM
[29] = second compound 3.16 µM, first compound 3.16 µM
[30] = second compound 3.16 µM, first compound 10 µM
[31] = second compound 10 µM, first compound 0.0316 µM
[32] = second compound 10 µM, first compound 0.1 µM
[33] = second compound 10 µM, first compound 0.316 µM
[34] = second compound 10 µM, first compound 1 µM
[35] = second compound 10 µM, first compound 3.16 µM
[36] = second compound 10 µM, first compound 10 µM
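Further: spheroids exposed to the compounds for one week.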
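Wherever viability, T/C is given: percent of tumor spheroid viability relative to DMSO vehicle control wells.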

SMILES: O=c1[nH]cc(F)c(=O)[nH]1 + CN(C)c1ccc(Nc2c3ccc(NC(=O)CCN4CCCC4)cc3nc3cc(NC(=O)CCN4CCCC4)ccc23)cc1
- IC50 (second compound 0.0316 µM): > 10000 nM
- IC50 (second compound 0.1 µM): > 10000 nM
- IC50 (second compound 0.316 µM): > 10000 nM
- IC50 (second compound 1 µM): > 10000 nM
- IC50 (second compound 3.16 µM): > 10000 nM
- IC50 (second compound 10 µM): < 31.6 nM
- viability, T/C [1]: 100%
- viability, T/C [2]: 92.7%
- viability, T/C [3]: 91.6%
- viability, T/C [4]: 98.8%
- viability, T/C [5]: 58.7%
- viability, T/C [6]: 64.3%
- viability, T/C [7]: 101%
- viability, T/C [8]: 108%
- viability, T/C [9]: 117%
- viability, T/C [10]: 96.4%
- viability, T/C [11]: 59.5%
- viability, T/C [12]: 60.1%
- viability, T/C [13]: 105%
- viability, T/C [14]: 98.7%
- viability, T/C [15]: 120%
- viability, T/C [16]: 102%
- viability, T/C [17]: 62.3%
- viability, T/C [18]: 60%
- viability, T/C [19]: 96.4%
- viability, T/C [20]: 102%
- viability, T/C [21]: 97.5%
- viability, T/C [22]: 84%
- viability, T/C [23]: 55.8%
- viability, T/C [24]: 58.4%
- viability, T/C [25]: 90.9%
- viability, T/C [26]: 96.9%
- viability, T/C [27]: 104%
- viability, T/C [28]: 77.9%
- viability, T/C [29]: 64.3%
- viability, T/C [30]: 59.1%
- viability, T/C [31]: 24.8%
- viability, T/C [32]: 20.1%
- viability, T/C [33]: 19.2%
- viability, T/C [34]: 25.5%
- viability, T/C [35]: 23.2%
- viability, T/C [36]: 18%

- IC50 (second compound 0.0316 µM): 2560 nM
- IC50 (second compound 0.1 µM): 551 nM
- IC50 (second compound 0.316 µM): < 31.6 nM
- IC50 (second compound 1 µM): < 31.6 nM
- IC50 (second compound 3.16 µM): < 31.6 nM
- IC50 (second compound 10 µM): < 31.6 nM
SMILES: O=C(c1cc(Cc2n[nH]c(=O)c3ccccc23)ccc1F)N1CCN(C(=O)C2CC2)CC1 + Cc1cnc(CNC(=O)c2c(=O)c3ccc(N4CCCN(C)CC4)nc3n3c2sc2ccccc23)cn1
- viability, T/C [1]: 78.3%
- viability, T/C [2]: 69.4%
- viability, T/C [3]: 95.4%
- viability, T/C [4]: 83.6%
- viability, T/C [5]: 42.9%
- viability, T/C [6]: 23.8%
- viability, T/C [7]: 57.4%
- viability, T/C [8]: 55.5%
- viability, T/C [9]: 53.2%
- viability, T/C [10]: 46.8%
- viability, T/C [11]: 35.4%
- viability, T/C [12]: 22.5%
- viability, T/C [13]: 28.4%
- viability, T/C [14]: 26.7%
- viability, T/C [15]: 25.7%
- viability, T/C [16]: 17.6%
- viability, T/C [17]: 10.7%
- viability, T/C [18]: 15.5%
- viability, T/C [19]: 23.4%
- viability, T/C [20]: 22.8%
- viability, T/C [21]: 25.7%
- viability, T/C [22]: 21%
- viability, T/C [23]: 18%
- viability, T/C [24]: 18.4%
- viability, T/C [25]: 25%
- viability, T/C [26]: 26.6%
- viability, T/C [27]: 27%
- viability, T/C [28]: 24.5%
- viability, T/C [29]: 23%
- viability, T/C [30]: 8.85%
- viability, T/C [31]: 0.44%
- viability, T/C [32]: 0.21%
- viability, T/C [33]: 0.23%
- viability, T/C [34]: 0.19%
- viability, T/C [35]: 0.23%
- viability, T/C [36]: 0.19%
